According to US20240208992A1, “MACROCYCLES AS CFTR MODULATORS” (Idorsia Pharmaceuticals Ltd, priority 2021, published 2024):
pEC50: −log10 of the molar value.

Target: human F508del-CFTR (Homo sapiens, UniProt P13569, DEL508-508)
Experiment: F508del-CFTR cell surface expression (corrector activity), DiscoveRx ß-galactosidase complementation chemiluminescence assay in recombinant U2OS cell line;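 further: U2OS cells co-expressing ProLink-tagged F508del-CFTR and a membrane-anchored enzyme acceptor, where more surface CFTR restores β-galactosidase activity measured by chemiluminescence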
Details: U2OS cell line, 16h compound incubation; for pEC50: EC50, F508del-CFTR cell surface expression, geomean values; for Emax: U2OS, in relation to the Emax of the corrector lumacaftor (=100%), arithmetic mean values

Chain of human F508del-CFTR (P13569 with tags, fused parts or gaps DEL508-508): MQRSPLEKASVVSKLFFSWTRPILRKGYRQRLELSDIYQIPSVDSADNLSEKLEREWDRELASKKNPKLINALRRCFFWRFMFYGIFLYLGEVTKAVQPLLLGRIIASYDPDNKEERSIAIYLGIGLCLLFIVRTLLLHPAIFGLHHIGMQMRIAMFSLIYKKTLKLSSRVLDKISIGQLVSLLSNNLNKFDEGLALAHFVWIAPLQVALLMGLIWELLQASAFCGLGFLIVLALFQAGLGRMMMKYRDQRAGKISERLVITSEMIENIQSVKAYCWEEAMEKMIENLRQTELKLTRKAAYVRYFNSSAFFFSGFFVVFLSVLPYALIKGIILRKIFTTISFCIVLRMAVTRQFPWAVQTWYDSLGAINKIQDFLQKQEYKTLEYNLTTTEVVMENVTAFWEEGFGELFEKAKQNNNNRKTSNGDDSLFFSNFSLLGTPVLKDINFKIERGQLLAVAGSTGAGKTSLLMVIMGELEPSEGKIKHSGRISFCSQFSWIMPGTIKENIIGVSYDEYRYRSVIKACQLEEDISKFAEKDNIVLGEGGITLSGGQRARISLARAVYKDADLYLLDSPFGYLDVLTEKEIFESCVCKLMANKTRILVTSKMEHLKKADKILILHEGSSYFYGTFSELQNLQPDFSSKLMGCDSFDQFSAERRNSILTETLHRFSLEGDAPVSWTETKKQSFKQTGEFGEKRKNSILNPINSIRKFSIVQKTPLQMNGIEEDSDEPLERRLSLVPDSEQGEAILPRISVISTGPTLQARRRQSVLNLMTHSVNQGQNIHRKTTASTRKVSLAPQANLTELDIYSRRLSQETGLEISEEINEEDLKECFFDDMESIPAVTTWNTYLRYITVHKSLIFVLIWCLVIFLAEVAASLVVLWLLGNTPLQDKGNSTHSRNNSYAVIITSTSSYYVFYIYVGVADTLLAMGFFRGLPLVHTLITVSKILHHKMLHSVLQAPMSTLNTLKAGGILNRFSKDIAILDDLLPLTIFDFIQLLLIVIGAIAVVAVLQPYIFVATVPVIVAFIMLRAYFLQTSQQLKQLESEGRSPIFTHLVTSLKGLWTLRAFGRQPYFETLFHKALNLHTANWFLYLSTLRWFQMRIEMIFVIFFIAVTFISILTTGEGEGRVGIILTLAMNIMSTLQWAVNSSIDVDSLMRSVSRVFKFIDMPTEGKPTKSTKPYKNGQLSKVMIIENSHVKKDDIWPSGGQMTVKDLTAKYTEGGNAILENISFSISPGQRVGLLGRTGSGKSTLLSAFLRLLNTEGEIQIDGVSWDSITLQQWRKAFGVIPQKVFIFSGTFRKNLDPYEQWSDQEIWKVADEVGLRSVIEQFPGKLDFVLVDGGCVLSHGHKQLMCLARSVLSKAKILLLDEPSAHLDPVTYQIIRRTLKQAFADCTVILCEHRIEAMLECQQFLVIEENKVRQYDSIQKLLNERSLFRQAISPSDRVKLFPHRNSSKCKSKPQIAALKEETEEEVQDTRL

| SMILES | pEC50 | Emax [%] |
| --- | --- | --- |
| COc1cc(CCNC(=O)[C@@H]2CC(=O)N(C)[C@@H](CC(C)C)C(=O)N3CCOC[C@@H]3C(=O)N[C@H](Cc3ccccc3)COc3ccc4ccccc4c3C(=O)N2)cc(OC)c1 [Example 325, (4aR,7R,18S,22S)-7-benzyl-N-(3,5-dimethoxyphenethyl)-22-isobutyl-21-methyl-5,16,20,23-tetraoxo-1,2,4,4a,5,6,7,8,16,17,18,19,20,21,22,23-hexadecahydronaphtho[1,2-p][1,4]oxazino[3,4-f][1]oxa[4,7,10,14]tetraazacycloheptadecine-18-carboxamide] | 6.73 | 237 |
| CC(C)C[C@H]1C(=O)N2CCOC[C@@H]2C(=O)N[C@H](Cc2ccccc2)COc2ccc3ccccc3c2C(=O)N[C@H](C(=O)NCCc2ccc3c(c2)OCO3)CC(=O)N1C [Example 326, (4aR,7R,18S,22S)-N-(2-(benzo[d][1,3]dioxol-5-yl)ethyl)-7-benzyl-22-isobutyl-21-methyl-5,16,20,23-tetraoxo-1,2,4,4a,5,6,7,8,16,17,18,19,20,21,22,23-hexadecahydronaphtho[1,2-p][1,4]oxazino[3,4-f][1]oxa[4,7,10,14]tetraazacycloheptadecine-18-carboxamide] | 6.56 | 273 |
| CC(C)C[C@H]1C(=O)N2CCOC[C@@H]2C(=O)N[C@H](Cc2ccccc2)COc2ccc3ccccc3c2C(=O)N[C@H](C(=O)NCCc2nc3ccccc3o2)CC(=O)N1C [Example 327, (4aR,7R,18S,22S)-N-(2-(benzo[d]oxazol-2-yl)ethyl)-7-benzyl-22-isobutyl-21-methyl-5,16,20,23-tetraoxo-1,2,4,4a,5,6,7,8,16,17,18,19,20,21,22,23-hexadecahydronaphtho[1,2-p][1,4]oxazino[3,4-f][1]oxa[4,7,10,14]tetraazacycloheptadecine-18-carboxamide] | 6.34 | 225 |
| COc1cc(CCNC(=O)[C@@H]2CC(=O)N(C)[C@@H](CC(C)C)C(=O)N3CCCC[C@@H]3C(=O)N[C@H](Cc3ccccc3)COc3ccc4ncn(C)c4c3C(=O)N2)cc(OC)c1 [Example 328, (8S,12S,18aR,21R)-21-benzyl-N-(3,5-dimethoxyphenethyl)-12-isobutyl-5,11-dimethyl-6,10,13,19-tetraoxo-6,7,8,9,10,11,12,13,16,17,18,18a,19,20,21,22-hexadecahydro-5H,15H-imidazo[4′,5′:5,6]benzo[1,2-p]pyrido[2,1-f][1]oxa[4,7,10,14]tetraazacycloheptadecine-8-carboxamide] | 6.01 | 228 |
| CC(C)C[C@H]1C(=O)N2CCCC[C@@H]2C(=O)N[C@H](Cc2ccccc2)COc2ccc3ncn(C)c3c2C(=O)N[C@H](C(=O)NCCc2ccc3c(c2)OCO3)CC(=O)N1C [Example 329, (8S,12S,18aR,21R)-N-(2-(benzo[d][1,3]dioxol-5-yl)ethyl)-21-benzyl-12-isobutyl-5,11-dimethyl-6,10,13,19-tetraoxo-6,7,8,9,10,11,12,13,16,17,18,18a,19,20,21,22-hexadecahydro-5H,15H-imidazo[4′,5′:5,6]benzo[1,2-p]pyrido[2,1-f][1]oxa[4,7,10,14]tetraazacycloheptadecine-8-carboxamide] | 6.10 | 198 |
| CC(C)C[C@H]1C(=O)N(CCC2CC3CCC2O3)CC(=O)N[C@H](Cc2ccccc2)COc2ccc3ccccc3c2C(=O)N[C@H](C(=O)NCCc2ccc3c(c2)OCO3)CC(=O)N1C (stereo partly drawn) [Example 330, (3S,7S,13R)-9-(2-(7-oxabicyclo[2.2.1]heptan-2-yl)ethyl)-N-(2-(benzo[d][1,3]dioxol-5-yl)ethyl)-13-benzyl-7-isobutyl-6-methyl-1,5,8,11-tetraoxo-1,2,3,4,5,6,7,8,9,10,11,12,13,14-tetradecahydronaphtho[1,2-p][1]oxa[4,7,10,14]tetraazacycloheptadecine-3-carboxamide] | 6.38 | 138 |
| CC(C)C[C@H]1C(=O)N(CCC2CCC3(CCC3)O2)CC(=O)N[C@H](Cc2ccccc2)COc2ccc3ccccc3c2C(=O)N[C@H](C(=O)NCCc2ccc3c(c2)OCO3)CC(=O)N1C (stereo partly drawn) [Example 331, (3S,7S,13R)-9-(2-(5-oxaspiro[3.4]octan-6-yl)ethyl)-N-(2-(benzo[d][1,3]dioxol-5-yl)ethyl)-13-benzyl-7-isobutyl-6-methyl-1,5,8,11-tetraoxo-1,2,3,4,5,6,7,8,9,10,11,12,13,14-tetradecahydronaphtho[1,2-p][1]oxa[4,7,10,14]tetraazacycloheptadecine-3-carboxamide] | 6.92 | 240 |
| CC(C)C[C@H]1C(=O)N(CCC2CCCO2)CC(=O)N[C@H](Cc2ccccc2)COc2ccc3ccccc3c2C(=O)N[C@H](C(=O)NCCc2ccc3c(c2)OCO3)CC(=O)N1C (stereo partly drawn) [Example 332, (3S,7S,13R)-N-(2-(benzo[d][1,3]dioxol-5-yl)ethyl)-13-benzyl-7-isobutyl-6-methyl-1,5,8,11-tetraoxo-9-(2-(tetrahydrofuran-2-yl)ethyl)-1,2,3,4,5,6,7,8,9,10,11,12,13,14-tetradecahydronaphtho[1,2-p][1]oxa[4,7,10,14]tetraazacycloheptadecine-3-carboxamide] | 6.51 | 183 |
| CC(C)C[C@H]1C(=O)N(CCC2CCCOC2)CC(=O)N[C@H](Cc2ccccc2)COc2ccc3ccccc3c2C(=O)N[C@H](C(=O)NCCc2ccc3c(c2)OCO3)CC(=O)N1C (stereo partly drawn) [Example 333, (3S,7S,13R)-N-(2-(benzo[d][1,3]dioxol-5-yl)ethyl)-13-benzyl-7-isobutyl-6-methyl-1,5,8,11-tetraoxo-9-(2-(tetrahydro-2H-pyran-3-yl)ethyl)-1,2,3,4,5,6,7,8,9,10,11,12,13,14-tetradecahydronaphtho[1,2-p][1]oxa[4,7,10,14]tetraazacycloheptadecine-3-carboxamide] | 6.46 | 182 |
| CC(C)C[C@H]1C(=O)N(CCC2CCC3(CCOCC3)CO2)CC(=O)N[C@H](Cc2ccccc2)COc2ccc3ccccc3c2C(=O)N[C@H](C(=O)NCCc2ccc3c(c2)OCO3)CC(=O)N1C (stereo partly drawn) [Example 334, (3S,7S,13R)-9-(2-(2,9-dioxaspiro[5.5]undecan-3-yl)ethyl)-N-(2-(benzo[d][1,3]dioxol-5-yl)ethyl)-13-benzyl-7-isobutyl-6-methyl-1,5,8,11-tetraoxo-1,2,3,4,5,6,7,8,9,10,11,12,13,14-tetradecahydronaphtho[1,2-p][1]oxa[4,7,10,14]tetraazacycloheptadecine-3-carboxamide] | 6.49 | 232 |
| CC(C)C[C@H]1C(=O)N(CCOC(C)(C)C)CC(=O)N[C@H](Cc2ccccc2)COc2ccc3ccccc3c2C(=O)N[C@H](C(=O)NCCc2ccc3c(c2)OCO3)CC(=O)N1C [Example 335, (3S,7S,13R)-N-(2-(benzo[d][1,3]dioxol-5-yl)ethyl)-13-benzyl-9-(2-(tert-butoxy)ethyl)-7-isobutyl-6-methyl-1,5,8,11-tetraoxo-1,2,3,4,5,6,7,8,9,10,11,12,13,14-tetradecahydronaphtho[1,2-p][1]oxa[4,7,10,14]tetraazacycloheptadecine-3-carboxamide] | 6.57 | 262 |
| COC1CC(CCN2CC(=O)N[C@H](Cc3ccccc3)COc3ccc4ccccc4c3C(=O)N[C@H](C(=O)NCCc3ccc4c(c3)OCO4)CC(=O)N(C)[C@@H](CC(C)C)C2=O)C1 (stereo partly drawn) [Example 336, (3S,7S,13R)-N-(2-(benzo[d][1,3]dioxol-5-yl)ethyl)-13-benzyl-7-isobutyl-9-(2-(3-methoxycyclobutyl)ethyl)-6-methyl-1,5,8,11-tetraoxo-1,2,3,4,5,6,7,8,9,10,11,12,13,14-tetradecahydronaphtho[1,2-p][1]oxa[4,7,10,14]tetraazacycloheptadecine-3-carboxamide] | 6.68 | 212 |
| CN1C(=O)C[C@@H](C(=O)NCCc2ccc3c(c2)OCO3)NC(=O)c2c(ccc3ccccc23)OC[C@@H](Cc2ccccc2)NC(=O)CN(C[C@@H]2CCCCO2)C(=O)[C@@H]1CC1CCC1 [Example 337, (3S,7S,13R)-N-(2-(benzo[d][1,3]dioxol-5-yl)ethyl)-13-benzyl-7-(cyclobutylmethyl)-6-methyl-1,5,8,11-tetraoxo-9-(((S)-tetrahydro-2H-pyran-2-yl)methyl)-1,2,3,4,5,6,7,8,9,10,11,12,13,14-tetradecahydronaphtho[1,2-p][1]oxa[4,7,10,14]tetraazacycloheptadecine-3-carboxamide] | 6.34 | 116 |
| CN1C(=O)C[C@@H](C(=O)NCCc2ccc3c(c2)OCO3)NC(=O)c2c(ccc3ccccc23)OC[C@@H](Cc2ccccc2)NC(=O)CN(C[C@H]2CCCCO2)C(=O)[C@@H]1CC1CCC1 [Example 338, (3S,7S,13R)-N-(2-(benzo[d][1,3]dioxol-5-yl)ethyl)-13-benzyl-7-(cyclobutylmethyl)-6-methyl-1,5,8,11-tetraoxo-9-(((R)-tetrahydro-2H-pyran-2-yl)methyl)-1,2,3,4,5,6,7,8,9,10,11,12,13,14-tetradecahydronaphtho[1,2-p][1]oxa[4,7,10,14]tetraazacycloheptadecine-3-carboxamide] | 6.53 | 173 |
| C#CC[C@H]1C(=O)N(CCC2CCCCC2)CC(=O)N[C@H](Cc2ccccc2)COc2ccc3ccccc3c2C(=O)N[C@H](C(=O)NCCc2ccc3c(c2)OCO3)CC(=O)N1C [Example 339, (3S,7S,13R)-N-(2-(benzo[d][1,3]dioxol-5-yl)ethyl)-13-benzyl-9-(2-cyclohexylethyl)-6-methyl-1,5,8,11-tetraoxo-7-(prop-2-yn-1-yl)-1,2,3,4,5,6,7,8,9,10,11,12,13,14-tetradecahydronaphtho[1,2-p][1]oxa[4,7,10,14]tetraazacycloheptadecine-3-carboxamide] | 6.71 | 237 |
